Results on 85 molecules are retold here after a melting point compilation (Tetko et al.; mined from patent text by program, amines drawn as free bases though some values may be those of a salt).

Molecules are shown by their SMILES. Residues, ends and D or L forms follow the SMILES beside them. *: point of attachment. Cbz = O=C(OCc1ccccc1)*; OtBu = CC(C)(C)O*; βAla = NCCC(=O)O

Broadly, the melting point is the temperature of the solid-liquid transition. For the molecule `CCCNC(=O)c1cc2c(nc(C)n2C)c2c1CCC(c1ccccc1)O2` (stereo not given), the melting point is 273 °C.
Then `CCOc1ccc(-c2ccc3c(c2)C=C(C(=O)Nc2ccc(CN(C)C4CCOCC4)cc2)CCS3=O)cc1` (stereo not given), with 192 to 195 °C.
Then `N#Cc1cnc2sc(I)cc2c1Cl`, with 181 to 182 °C.
Then `CN(C)C(=O)c1nc2n(n1)-c1ccccc1N(c1ccccc1)C2`, with 150 to 165 °C; and `O=C(O)C(=O)CC(=O)c1cccn1Cc1ccc(F)c(F)c1`, with 145 to 148 °C; and `Cc1nsc(OCC(Cl)(Cl)Cl)c1S(=O)(=O)Cl`, with 71 to 74 °C.
`C[C@@H](C(N)=O)c1ccc(NS(=O)(=O)c2ccccc2)cc1` returned a melting point of 152 to 153 °C.
The result for `COc1cc(I)c(C(=O)Cl)cc1OC` reads 151 to 154 °C.
Then `COc1cc(C=O)cc(OCCCC(=O)O)c1OC`, with 90 to 92 °C; and `COc1ccc2c(c1)OC=C(C(=O)N1CCN(C(c3ccc(F)cc3)c3ccc(F)cc3)CC1)O2`, with 65 °C; and `O=C(O)Cn1c(=O)c2ccccc2n(CCCN2CCC(OC(c3ccccc3)c3ccccc3)CC2)c1=O`, with 170 to 172 °C.
The result for `COC(=O)C1=C(C)NC(C)=C(C(=O)OC)C1c1cccc(NC(=NC#N)N(C)CCCN2CCC(c3ccccc3)CC2)c1` reads 135 to 145 °C.
`O=C(C1Cc2ccccc2N1c1ncccn1)N1CCCC1` (stereo not given) showed a melting point of 220 to 223 °C.
Then `CC(C)=CC(=O)N1CCN(C(Cc2cccc(O)c2)c2ccccc2)CC1` (stereo not given), with 186 to 187 °C; and `CCc1ncnc(NC2CCC3(CC2)OCC(CO)O3)c1Cl` (stereo not given), with 97 to 98 °C.
Then `N#Cc1ccccc1CNC(=O)C1Cc2ccccc2N1S(=O)(=O)c1ccc(-c2cccc(C(F)(F)F)c2)cc1` (stereo not given), with 70 °C; and `COc1ccnc(CSc2nc3cc(C(F)(F)F)ccc3[nH]2)c1C`, with 148 °C.
The result for `CCCC(=O)c1cnc2c(C(N)=O)cccc2c1Nc1ccccc1C` reads 185 to 187 °C; that for `C#CCOC(=O)C1=C(C)NN=C(CC)C1c1cccc([N+](=O)[O-])c1` (stereo not given), 70 °C; that for `COc1ccc([N+](=O)[O-])c2c1oc1ccccc12`, 155 to 156 °C.
Turning to `O=S(=O)(NCc1ccc(Br)cc1)c1ccccc1Br`, the melting point fell in the range of 108 to 110 °C.
Then `CC(=O)c1ccc(C(C)Oc2cncc(C(=O)Nc3ccc(C#N)cc3)c2)cc1` (stereo not given), with 181 to 183 °C.
In the case of `CCOC(=O)c1ccc(C=C2C(=O)COC2=O)s1`, the melting point fell in the range of 204 to 206 °C.
Consider `COc1cc(COC(=O)C2Cc3sccc3C(=O)N2Cc2cc(OC)c(OC)c(OC)c2)cc(OC)c1OC` (stereo not given), for which the melting point worked out at 55 °C.
As for `COC(=O)C1=C(C)NC(C)=C(C(=O)OC)C1CCCCC(=O)O`, the melting point lay in the range of 150 to 151 °C.
Then `COC(=O)C(Oc1ccc(C2CCCCC2)cc1)c1ccc(Oc2ccc(Cl)cc2)cc1` (stereo not given), with 122 to 124 °C; and `Cc1ccc(C(=O)NC(NC(=S)Nc2cccc(F)c2F)C(F)(F)F)cc1` (stereo not given), with 210 to 211 °C.
Then `CC1(C)CC(N(CCCCCCN(c2nc(Cl)nc(Cl)n2)C2CC(C)(C)NC(C)(C)C2)c2nc(Cl)nc(Cl)n2)CC(C)(C)N1`, with 161 to 163 °C; and `CN(Cc1sc2c(=O)c(C(=O)NCc3ccc(Cl)cc3)cn(C)c2c1COCC[Si](C)(C)C)CC(O)c1cnccn1` (stereo not given), with 155 to 156 °C.
Then `CCn1c(C)c(C(=O)c2ccc([N+](=O)[O-])cc2C(=O)O)c2ccccc21`, with 203 to 204 °C; and `COC(=O)CC[C@H](NC(=O)c1ccc(CCn2cnc3nccc-3c2O)cc1)C(=O)OC`, with 170 to 172 °C; and `CC(=Cc1ccc2c(c1)S(=O)(=O)c1cc(C=C(C)c3ccccc3)ccc1N2C)c1ccccc1`, with 190 to 193 °C.
In turn, `O=C(O)c1ccccc1Sc1ccccc1[N+](=O)[O-]` displayed a melting point of 169 to 171 °C.
Then `Cc1n[nH]c2c(C(=O)NC(C)C)c(NC(=O)c3cc(C(F)(F)F)nn3-c3ncccc3Cl)c(Cl)cc12`, with 235 to 236 °C; and `COCN1C(=O)OC(C)(C)c2cc(-c3cc(F)cc(C#N)c3)ccc21`, with 169 to 171 °C; and `CC(c1ccc(Cl)c(Cl)c1)n1[nH]c(N)cc1=O` (stereo not given), with 127 to 129 °C.
Then `CC(C)(C)C(O)(Cn1cncn1)C(Cl)=CBr` (stereo not given), with 45 to 48 °C.
The result for `CC(=O)Nc1cccc2c1C1(COc3cc4c(cc31)OCCO4)C(=O)N2C` (stereo not given) reads 182 to 184 °C.
`C=C(Cn1cc[nH]c1=O)c1ccc(OC)c(OC2CCCC2)c1` returned a melting point of 110 °C.
The result for `COC(=O)C1CCC2(C3(C)OCCO3)CC1C(=O)O2` (stereo not given) reads 69 to 71 °C.
Then `c1ccc(-c2ccc(-c3nc4n(n3)Cc3ccccc3-4)cc2)cc1`, with 231 °C; and `COc1ccc(F)cc1C(C)(C)CC(O)(CN1CC(=O)N(C)c2ccccc21)C(F)(F)F` (stereo not given), with 132 to 134 °C; and `CC(C)(C)c1cc(C2=CCCCC2)c(O)c(C(C)(C)C)c1`, with 102 to 104 °C.
Then `CC(C(=O)O)c1ccc(-c2ccccc2F)cc1` (stereo not given), with 94.5 to 97 °C; and `CCOC(=O)Nc1ccc2nc3ccccc3c(-c3cc(C)ccc3C)c2c1`, with 200 to 202 °C.
The molecule `O=C(NCCCCSc1ccncc1)c1ccccc1CO` yielded a melting point of 87 to 88 °C.
Then `COc1cc2c(cc1Cl)CCOC2c1ccc([N+](=O)[O-])cc1` (stereo not given), with 150 to 153 °C; and `O=C(O)c1ccccc1OCCNC(=O)C1Cc2ccccc2N1S(=O)(=O)c1ccc(-c2cccc(C(F)(F)F)c2)cc1` (stereo not given), with 70 °C; and `COc1ccc2cc(C=CC(C)=O)ccc2c1`, with 114 to 116 °C.
The result for `O=c1[nH]c2ccccc2n1-c1cc(Cl)ccc1O` reads 248 to 250 °C.
As for `COC(=O)c1ccc(CBr)c2occc12`, the melting point fell in the range of 73 to 80 °C.
Then `[N-]=[N+]=Nc1nc(N)c2ncn(COCCO)c2n1`, with 191 to 192 °C; and `Nc1nc(Nc2ccc(S(N)(=O)=O)cc2)sc1C(=O)c1sc(Br)cc1Br`, with 254 to 255 °C; and `O=C1CCC(O)(c2nc3ccccc3s2)C(Sc2ccccc2)(Sc2ccccc2)C1` (stereo not given), with 150 to 151 °C.
`C=CC(CC(O)C(CC1CCCCC1)NC(=O)C(Cc1c[nH]cn1)NC(=O)C(Cc1ccccc1)N(C)C(=O)CC(C)(C)C)C(C)C` (stereo not given) yielded a melting point of 126 °C.
The result for `CNC(=O)N1CCC(C(c2ccc(F)cc2)N(CCc2ccccc2)C(=O)NC)CC1` (stereo not given) reads 186 to 188 °C; that for `CCCCCCCCCCSc1ccc(Br)cc1`, 37 to 39 °C.
Then `CC(Cc1c[nH]c2ccccc12)(NC(=O)OC1C2CC3CC(C2)CC1C3)C(=O)NCCc1cnccn1` (stereo not given), with 97 to 101 °C.
The result for `CCCCc1oc2ccccc2c1C(=O)Nc1ccc2c(Br)c(OC(Cc3ccccc3)C(=O)O)ccc2c1` (stereo not given) reads 191 to 195 °C; that for `CNC(=O)n1sc(SC)nc1=O`, 144 °C; that for `CCCc1nn(C)c2c(=O)n(CCCOc3ccc(OC(C)(C)C(=O)O)cc3)cnc12`, 136 to 138 °C.
With `O=C(Nc1ccccc1)c1nc(-c2ccc(Cl)cc2Cl)c(-c2ccc(Cl)cc2)s1`, the melting point fell in the range of 167 to 168 °C.
Then `CCCn1cc(Cc2ccc(C(=O)NS(=O)(=O)c3ccccc3C)cc2OC)c2cc(CCNC(=O)N(C)C)ccc21`, with 115 to 121 °C; and `Cc1cccc(C)c1NC1=NCCN1`, with 155 to 156 °C.
Then `c1ccc(Cc2ncc(-c3cnc(-c4ccccc4)nc3)[nH]2)cc1`, with 235 °C; and `O=C1NC(=O)C(c2ccc(Oc3ccc(Cl)cc3)cc2)(N2CCN(CC(O)CO)CC2)C(=O)N1` (stereo not given), with 257 to 258 °C.
As for `CSc1nc2c(Cl)ccc(-n3c(=O)cc(C(F)(F)F)n(C)c3=O)c2s1`, the melting point was 79 to 81 °C.
The result for `CC1Cc2cc3c(cc2C(c2ccc([N+](=O)[O-])cc2)=NN1C(N)=S)OCO3` (stereo not given) reads 213 to 215 °C.
With `O=C(O)CCCC(=O)c1cccc([N+](=O)[O-])c1`, the melting point fell in the range of 135 to 137 °C.
Then `COc1ccccc1N1CCN(CC(O)COc2ccccc2CC(N)=O)CC1` (stereo not given), with 120 to 122 °C.
Then `CC(C)C(NC(=O)C(CC(=O)OC(C)(C)C)NC(=O)CCNC(=O)OCc1ccccc1)C(=O)OC(C)(C)C` (stereo not given) ({Cbz-βAla}-Asp(OtBu)-Val-OtBu; configuration not given here), with 126 °C; and `Cc1c(-c2ccccc2)[nH]c2ccc(Cl)cc2c1=O`, with 296 to 302 °C.
The result for `CN(CCn1ncc2ccccc2c1=O)CC(O)c1ccc(NS(C)(=O)=O)cc1` (stereo not given) reads 134 to 137 °C; that for `Cc1cc(=O)c(-c2ccccc2)c(-c2ccc(S(N)(=O)=O)cc2)o1`, 218 °C.
Take `CCOC(=O)c1c(N2CCN(C(=O)c3cccs3)CC2)c2cccnc2n(C)c1=O`: the melting point stood at 164 °C.
The result for `CCCCOCCOC(=O)C1=C(C)NN=C(CC)C1c1cccc([N+](=O)[O-])c1` (stereo not given) reads 122 °C; that for `CCSc1cc(C#N)c(Cl)cn1`, 103 to 104 °C.
Then `C1=CC2=NCCC3CCOC23C=C1` (stereo not given), with 170 to 171 °C.
On to `O=[N+]([O-])c1ccc(C2CCNCC2)cc1`, for which the melting point is 90 to 92 °C.
In turn, `C(#CCN(c1ccccc1)c1ccccc1)CN(c1ccccc1)c1ccccc1` returned a melting point of 84 to 86 °C.
In turn, `O=c1[nH]c(=O)n(C2CC(O)C(COCc3ccccc3)O2)cc1F` (stereo not given) returned a melting point of 129 to 130 °C.
In the case of `CCc1nc2c(cnn2CC)c(NC2CCOCC2)c1CNC(=O)c1cccc(C(=O)NCc2ccc(OC)c(-c3cccc(CN4CCCN(C)CC4)c3)c2)c1`, the melting point is 116 to 119 °C.
The result for `COc1ccc(C2CCC(=O)CC2=O)cc1` (stereo not given) reads 150 to 151 °C; that for `Cc1ncn(Cc2ccc(NC(=O)C(F)(F)F)cc2C(F)(F)F)c1C`, 238 to 239 °C; that for `CCC(ON=c1c2nccc3cccc(c32)n2cccc12)C(=O)O` (stereo not given), 180 °C.
